In article PMC7002685, “Inhibition of vascular calcification by inositol phosphates derivatized with ethylene glycol oligomers” (Nature Communications, 2020):
Values joined by “and” are separate entries in the source; they are usually repeats but may differ in a detail not shown here. Identical values can stand only once.

Tests used:
[1] = system: primary human VSMCs; test: High-CaP medium-induced VSMC calcification; type: cell-based; details: for VSMC calcium deposition, % of high-CaP control: high-CaP medium, 5 days
Protocol: Incubation of VSMCs in high-CaP medium induced cell monolayer calcification after 5 days (Fig. 3b). […] The effect became significant from 0.1 µM (OEG2)2-IP4 on, where a 54% reduction in calcification was observed compared to untreated high-CaP medium-exposed cells.
(§1) Primary human VSMCs (C-12533, PromoCell, Heidelberg, Germany) were cultured according to the manufacturer's guidelines in SMC-2 culture medium (C-22062, PromoCell) and used up to passage 7. For calcification experiments cells were seeded onto 24-well plates (TPP) at a density of 20,000 cells/well and left to attach for 48–72 h. Complete medium was M199 medium (31150022, Thermo Fischer Scientific), supplemented with 10% v/v FBS (10270106, Thermo Fisher Scientific, Waltham, MA), 1% v/v penicillin/streptomycin (15140122, Thermo Fisher Scientific), and 4 mM L-glutamine (25030024, Thermo Fisher Scientific)[80]. Calcification of cell monolayers was induced as described previously[81] by treatment with CPP2-supplemented (50 µg Ca/mL) medium with or without test compounds (1, 3, 10, 30, and 100 µM) at a volume of 1 mL/well for 48 h at 37 °C, 5% CO2. In a second assay, calcification was induced similar to previous experiments[56] by cell treatment with or without test compounds (0.01, 0.1, 1, 10, and 100 µM) in complete medium supplemented with calcium (2.7 mM) and phosphate (2.5 mM) (CaP medium) at a volume of 1 mL/well for 5 days, and treatment medium was replaced on alternate days.
(§2) Calcium deposition on cell monolayers was assessed qualitatively by staining for calcium with 2% w/v Alizarin Red S aqueous solution (pH 4.2) (05600, Fluka Analytical). Cell monolayers in 24-well plates were washed with PBS (10010015, Thermo Fischer), fixed in 10% v/v NBF in PBS (F8775, Sigma-Aldrich) for 45 min at RT, washed with milli-Q water, incubated for 3 min with 300 µL Alizarin Red S solution, washed with milli-Q, and images were acquired using a Axiovert 35 microscope (Zeiss, Carl Zeiss Microscopy GmbH, Jena, Germany) at ×100 magnification. Calcium quantitation was performed after washing cells with PBS and then decalcifying cell monolayers with 0.1 M HCl overnight at 4 °C. Acidic supernatants were centrifuged (10,000 × g, 4 °C, 10 min) and calcium content was assessed using the calcium colorimetric assay.

[2] = biological target: T1, Muscarinic M2 (Homo sapiens, UniProt P08172); test: Off-target 252710; type: binding
T1 construct: purchased Eurofins Panlabs Discovery Services Taiwan, Ltd
T1 sequence (P08172 whole entry): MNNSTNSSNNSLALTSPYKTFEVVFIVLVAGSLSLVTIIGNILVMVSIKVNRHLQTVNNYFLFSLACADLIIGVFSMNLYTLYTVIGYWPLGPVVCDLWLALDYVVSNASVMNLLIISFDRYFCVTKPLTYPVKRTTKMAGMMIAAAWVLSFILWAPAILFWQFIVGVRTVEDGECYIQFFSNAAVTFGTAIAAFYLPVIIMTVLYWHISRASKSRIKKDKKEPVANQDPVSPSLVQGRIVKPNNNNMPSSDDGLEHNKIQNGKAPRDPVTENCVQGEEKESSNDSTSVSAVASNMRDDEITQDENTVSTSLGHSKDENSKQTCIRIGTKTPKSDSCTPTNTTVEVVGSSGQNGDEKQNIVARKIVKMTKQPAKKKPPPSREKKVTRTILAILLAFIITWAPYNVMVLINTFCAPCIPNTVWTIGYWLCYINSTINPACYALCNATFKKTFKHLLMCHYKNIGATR
Protocol: The potential off-target activity of 10 µM (OEG2)2-IP4 was assessed against a panel of 87 enzymes, receptors, or ion channels that are used in standard safety pharmacology screens.
3.2. Off-target screening assay
The experiments were conducted by a contract research organization (Eurofins Panlabs Discovery Services Taiwan, Ltd.) and details on the respective assays can be retrieved via the catalog number provided in Supplementary Table 11 from the company’s webpage
(https://www.eurofinsdiscoveryservices.com/). […]
At sacrifice the left tibia of animals of the rat model with dietary adenine/high-phosphate-induced uremia and VC was collected, fixed with 70% v/v EtOH and embedded in methyl methacrylate. The trabecular bone compartment is known to be the most metabolic active i.e. actively re-structured bone compartment in CKD. Therefore, histomorphometric and micro-computed tomography (µCT) analysis of bone was performed on the trabecular compartment. Tibial sections were Goldner-stained for histomorphometric analysis of the proximal metaphysis using the AxioVision Release 4.5 software, as […]
described previously5. […]

[3] = system: primary human VSMCs; test: CPP2-induced VSMC calcification; type: cell-based; details: for VSMC calcium deposition, % of CPP2 control: CPP2 50 µg Ca/mL
Protocol: Macrophage accumulation and inflammation coincide with the initial phase of calcification. To this end, VSMCs and THP-1-derived macrophages were exposed to CPP2-supplemented medium. CPP2 prepared from human serum as described previously[61] (Supplementary Figs. 6 and 7), induced a pronounced VSMC monolayer calcification after 48 h, which was decreased by (OEG2)2-IP4 in a dose-dependent fashion, and the effect became significant at 10 µM (Fig. 3e). […] Both H2O2 (proxy for oxidative stress) and tumor necrosis factor-alpha (TNF-α) (proxy for inflammatory response) levels were assayed in the VSMC culture supernatants subsequent to CPP2 treatment with and without compounds[30]. However, no increase in H2O2 nor TNF-α compared to control could be detected in either assay. For the CPP-induced VSMC calcification assay (Fig. 3e) a roughly 10-fold higher concentration of (OEG2)2-IP4 was necessary to achieve similar activity as in the CaP-induced VSMC calcification assay (Fig. 3b). […] In the CaP assay, low inhibitor concentration may be sufficient to inhibit crystal nucleation, whereas for the CPP assay higher inhibitor concentrations may be needed to achieve sufficient particle stabilization by chemisorption of inhibitor onto CPPs. Similar results have been reported for hydrogen sulfide in the context of VC[62],[64]. […] An increase in the TNFα levels in the cell culture supernatants was not observed for (OEG2)2-IP4 with (Fig. 3h) and without (Supplementary Fig. 10) combined CPP2 treatment.
as §1, §2

[4] = system: primary human VSMCs; test: VSMC viability (MTS), compounds only; type: cell-based; details: for VSMC viability (MTS), % of medium control: compound only

## COCCOCCO[C@@H]1[C@@H](OP(=O)(O)O)[C@H](OCCOCCOC)[C@@H](OP(=O)(O)O)[C@@H](OP(=O)(O)O)[C@H]1OP(=O)(O)O [(OEG2)2-IP4, 4,6-Di-O-(methoxy-diethyleneglycol)-myo-inositol-1,2,3,5-tetrakis(phosphate)]
[1]; 0.01 µM, replicates Fig. 3b
  VSMC calcium deposition, % of high-CaP control: 129.5% and 91.16% and 131.6%
[1]; 0.1 µM
  reduction in calcification vs untreated high-CaP medium-exposed cells: 54%
  VSMC calcium deposition, % of high-CaP control: 56.69% and 37.74% and 44.37%
[1]; 1 µM
  VSMC calcium deposition, % of high-CaP control: 4.7% and 5.812% and 10.69%
[1]; 10 µM
  VSMC calcium deposition, % of high-CaP control: 4.402% and -0.7134% and 6.025%
[1]; 100 µM
  VSMC calcium deposition, % of high-CaP control: 4.139% and 1.382% and 4.723%
[1]; above 1 µM
  calcium deposition: almost completely abrogated
[2]
  inhibition at 10 µM: 4%
[3]
  fold higher concentration necessary in CPP-induced vs CaP-induced VSMC calcification assay: roughly 10 fold
[3]; 1 µM, 48 h, replicates Fig. 3e
  VSMC calcium deposition, % of CPP2 control: 88.4113% and 80.5453% and 68.3456% and 69.0785%
[3]; 3 µM, 48 h
  VSMC calcium deposition, % of CPP2 control: 92.4907% and 73.6279% and 53.9051% and 56.3804%
[3]; 48 h
  concentration at which decrease of CPP2-induced calcification became significant: 10 µM
[4]; 0.01 µM, replicates Fig. 3a
  VSMC viability (MTS), % of medium control: 106.7% and 112.6% and 127.9%
[4]; 0.1 µM
  VSMC viability (MTS), % of medium control: 105.4% and 101.1% and 125.7%
[4]; 1 µM
  VSMC viability (MTS), % of medium control: 106.9% and 113.8%
[4]; 10 µM
  VSMC viability (MTS), % of medium control: 100.7% and 120.7%
[4]; 100 µM
  VSMC viability (MTS), % of medium control: 101.2% and 99.46% and 122.9%
[4]; 0.01–100 µM
  changes in cell viability: did not lead to any changes in cell viability

## O=P(O)(O)O[C@H]1[C@H](OP(=O)(O)O)[C@@H](OP(=O)(O)O)[C@H](OP(=O)(O)O)[C@@H](OP(=O)(O)O)[C@H]1OP(=O)(O)O [IP6, myo-Inositol hexakisphosphate]
[1]; 0.01 µM, replicates Fig. 3b
  VSMC calcium deposition, % of high-CaP control: 45.78% and 57.03% and 44%
[1]; 1 µM
  VSMC calcium deposition, % of high-CaP control: 43.35% and 32.19% and 33.2%
[1]; 10 µM
  VSMC calcium deposition, % of high-CaP control: 27.4% and 34.12% and 27.96%
[1]; all doses studied (up to 100 µM)
  reduction of VSMC mineralization: 50–70%
[3]; 1 µM, 48 h, replicates Fig. 3e
  VSMC calcium deposition, % of CPP2 control: 77.8896% and 82.8838% and 86.0538% and 91.73%
[3]; 3 µM, 48 h
  VSMC calcium deposition, % of CPP2 control: 95.5105% and 90.2183% and 79.3785% and 87.2842%
[3]; 10 µM, 48 h
  VSMC calcium deposition, % of CPP2 control: 37.8415%
[3]; 30 µM, 48 h
  VSMC calcium deposition, % of CPP2 control: 57.6847% and 47.1535% and 71.7458% and 75.8811%
[3]; 100 µM, 48 h
  VSMC calcium deposition, % of CPP2 control: 79.2544% and 65.4345% and 85.4719%
[4]; 0.01 µM, replicates Fig. 3a
  VSMC viability (MTS), % of medium control: 107.6% and 117.7% and 127.9%
[4]; 0.1 µM
  VSMC viability (MTS), % of medium control: 101.2% and 116.5% and 123.9%
[4]; 1 µM
  VSMC viability (MTS), % of medium control: 102.4% and 110.2% and 123.7%
[4]; 10 µM
  VSMC viability (MTS), % of medium control: 107.1% and 105.1% and 128.6%
[4]; 100 µM
  VSMC viability (MTS), % of medium control: 108.9% and 116.9% and 143.6%
